Measurements taken from patent US8618068B2, “Methods and low dose regimens for treating red blood cell disorders” (priority 2009, dated 2013).

Assays:
in vivo [1] = experiment: in vivo; design: species or system Sprague-Dawley rats; conditions: rat; for NOAEL at 14 days: Sprague-Dawley
Method: […] With respect to the FOB measurements, the effect of DMB appeared to be more pronounced in females than males. […] However, decreased motor activity, reduced rectal temperature, direct limbic effects such as a deficit in visual tactile placing accuracy, ataxia, dragging of the hindlimbs in the open field, and decreased grip strength and neuromotor-neuromuscular deficits were only documented in the female rats at 600 mg/kg. In the male rats, these effects were present only in the animals treated with 1,000 mg/kg.

in vivo [2] = experiment: in vivo; design: species or system Beagle dogs; conditions: dog
Text: Completed toxicology studies conducted with DMB include a single-dose toxicity study in Sprague-Dawley rats, escalating dose toxicity study in Beagle dogs, a repeat dose study of 14-Day duration in Sprague-Dawley rats and repeat-dose toxicity studies of 28-Day duration in Sprague-Dawley rats and Beagle dogs, and 26-Week studies in Sprague-Dawley rats and Beagle dogs. […] Reproductive toxicity studies include two dose-range finding studies, one in Sprague-Dawley rats, the other in New Zealand white rabbits. DMB was administered once a day (QD) orally via gavage; doses are expressed as the sodium salt. In addition, an array of genotoxicity studies were conducted with DMB.
Based on the results of this study, the NOEL for DMB in male and female Beagle dogs was 50 mg/kg/day; and the NOAEL for DMB in male and female Beagle dogs was at least 300 mg/kg/day, the highest dose administered over the 26-Week treatment period.

clinical = conditions: human, in vivo
Method: The first clinical study was a phase 1, double-blind, placebo-controlled, single dose study of the tolerability, safety and pharmacokinetics of DMB in 32 healthy volunteers. Healthy, fasting adult volunteers received single oral doses of DMB or placebo capsules at one of four dose levels (2 mg/kg, 5 mg/kg, 10 mg/kg and 20 mg/kg). Six subjects received study drug (24 subjects total) and 2 subjects received placebo at each dose level. The 8 placebo subjects received a capsule containing only the excipients from the capsules containing the active agent. Subjects at the 20 mg/kg also received a second dose of study drug after a defined meal, one week following the fasting dose.
DMB was rapidly absorbed after oral administration, with peak concentrations of DMB occurring at 0.5 to 3 hours after dosing, followed by a mono-exponential decay phase, consistent with linear pharmacokinetics (FIG. 7; FIG. 8). Inter-subject variability in the primary PK parameters appears to be low, especially at higher doses.

[3] = Phase 2 trial in thalassemia intermedia patients, safety; format: in vivo, human
Method: A randomized, doubled blind, placebo-controlled, multiple ascending dose Phase I/II trial was conducted in 21 adult patients with beta thalassemia intermedia, including 14 patients with HbE/β^0 thalassemia from Thailand and 7 patients with β^+/β^0 thalassemia (including 12 different beta globin gene mutations). Study medication was taken as a single daily dose of DMB for 8 weeks followed minimally by a 4 week break and follow-up period. Four ascending dose levels (10, 20, 30, and 40 mg/kg/day) were sequentially evaluated in 4 dose level cohorts after the preceding dose and schedule were determined safe by an independent and unblinded Safety Monitoring Committee.
All treatment groups had two placebo patients; placebo patients in the first dose group were randomized to treatment in the second dose group. Ten patients in Thailand (all HbE type) were treated with 10 mg/kg (8 active/2 placebo) followed by eight patients in Thailand who were treated followed by 30 mg/kg (6 active/2 placebo). Eleven patients (4 That, 7 Lebanese) were treated with 20 mg/kg followed by 40 mg/kg (9 active [6 Lebanese/3 That]/2 placebo). Patients ranged in age from 17 to 49 with a median age of 31 and were comprised for 16 females and 5 males.
Patients were monitored every 2 weeks for laboratory studies, physical examinations, and adverse events. Further, patients were followed for hematologic parameters primarily focusing on hemoglobin and fetal hemoglobin (HbF). In addition, pharmacokinetic samples were obtained on Day 0 and 13, at pre-dose and 2, 4, 6, 8, 12, and 24 hours post-dosing. Hemoglobin was measured at each site using standard hematology equipment. HbF was measured using Varian HPLC. […] Adverse events in treated subjects included headache, upper respiratory infection, pyrexia, fatigue, nausea, and dizziness, but the rates of such events were not markedly different from those observed in the placebo-treated subjects.

[4] = Phase 2 trial in sickle cell disease patients, safety; format: in vivo, human; conditions: 10, 20, 30 mg/kg/day
Method: A randomized, blinded dose-ranging Phase 1/2 clinical trial was performed in 24 US and Jamaican adult patients with sickle cell disease (including HbSS or S/β thalassemia). DMB was administered once daily for six week cycles of daily therapy with a 2 week treatment break between two cycles, then followed by a final 4 weeks without treatment. Three dose levels (10, 20, 30 mg/kg/day) were studied sequentially. Four out of 24 subjects were treated with placebo and 21 subjects were evaluable. Seven Patients (5 active/2 placebo) at 10 mg/kg, 6 patients (5 active/1 placebo) at 20 mg/kg, and 9 patients (7 active/1 placebo) at 30 mg/kg were randomized in the study. Patients ranged in age from 14 to 56 with a median age of 31 and were comprised of […]. Patients were followed for hematologic parameters focusing on fetal hemoglobin (HbF). HbF was measured by a Waters Empower 32 HPLC system with a Synchropak CM-300 column.

## CCC(C)(C)C(=O)[O-].[Na+] [DMB, Sodium 2,2-dimethylbutyrate]
In vivo [1]; female
  NOAEL at 14 days: 200 mg/kg/day
In vivo [1]; male
  NOAEL at 14 days: 600 mg/kg/day
In vivo [1]
  FOB effects after two-week drug free period: no residual FOB effects
In vivo [2]; both sexes, Beagle
  NOAEL at 26 weeks: ≥ 300 mg/kg/day
In vivo [2]; both, Beagle, 26 weeks
  NOEL: 50 mg/kg/day
In vivo [2]
  adverse effects: no adverse effects
  clinical observations: no important treatment-related clinical observations
  effects on ECG measurements: No biologically significant effects
clinical
  CL/F: 0.267 to 1.03 mL/min/kg
  Vd: 0.204 to 0.426 L/kg
  doses achieving biologically active plasma drug levels: ≥ 10 mg/kg
  half-life: 5.5 to 11.6 h
clinical; 2 mg/kg
  AUC(0-inf): 38 ± 23 µg·h/mL
clinical; 5 mg/kg
  AUC: 38.3 µg·h/mL
  AUC(0-inf): 320 ± 40 µg·h/mL
clinical; 10 mg/kg
  AUC(0-inf): 538 ± 125 µg·h/mL
clinical; 20 mg/kg
  AUC: 1190 µg·h/mL
  AUC(0-inf): 1190 ± 243 µg·h/mL
  effect of food on AUCINF: no effects were observed
clinical; 20 mg/kg, mean Cmax
  Cmax: 89 µg/mL
clinical; po
  time of peak concentrations after dosing: 0.5 to 3 h
[3]; 10 mg/kg
  Dizziness: 2 (25) n (%)
  Fatigue: 1 (13) n (%)
  Headache: 5 (63) n (%)
  Nausea: 0 n (%)
  Pyrexia: 3 (38) n (%)
  Serious adverse event: Palpitations: 1 (13) 10 mg/kg n (%)
  Treatment Related? (Palpitations): Not related to treatment
  Upper Respiratory Tract Infection: 5 (63) n (%)
[3]; 10 mg/kg, considered not related to study medication
  subjects who discontinued study medication due to anemia: Two
[3]; 20 mg/kg
  Dizziness: 2 (22) n (%)
  Fatigue: 0 n (%)
  Headache: 3 (33) n (%)
  Nausea: 2 (22) n (%)
  Pyrexia: 0 n (%)
  Serious adverse event: Suprapubic Pain: 1 (11) 20 mg/kg n (%)
  Treatment Related? (Suprapubic Pain): Unlikely related
  Upper Respiratory Tract Infection: 2 (22) n (%)
[3]; 30 mg/kg
  Dizziness: 0 n (%)
  Fatigue: 0 n (%)
  Headache: 2 (33) n (%)
  Nausea: 0 n (%)
  Pyrexia: 2 (33) n (%)
  Upper Respiratory Tract Infection: 1 (17) n (%)
[3]; 40 mg/kg
  Dizziness: 1 (11) n (%)
  Fatigue: 4 (44) n (%)
  Headache: 1 (11) n (%)
  Nausea: 3 (33) n (%)
  Pyrexia: 1 (11) n (%)
  Serious adverse event: Gastritis: 1 (11) 40 mg/kg n (%)
  Treatment Related? (Gastritis): Not related to treatment
  Upper Respiratory Tract Infection: 1 (11) n (%)
[3]; 10 to 40 mg/kg/day, 8 weeks
  tolerability: well tolerated
[3]; HQK-1001 groups
  Serious adverse event: Gastroenteritis: 0 n (%)
  Serious adverse event: Upper Respiratory Infection: 0 n (%)
[4]
  tolerability: well tolerated
